What all share (test): biochemical
Assay type in all cases: biochemical

Experiment [1] deals with T1, 382 unique human kinases (Homo sapiens, UniProt O43781).
T1 construct: purchased Reaction Biology (HotSpot contract assay)
T1 sequence (O43781 1-588): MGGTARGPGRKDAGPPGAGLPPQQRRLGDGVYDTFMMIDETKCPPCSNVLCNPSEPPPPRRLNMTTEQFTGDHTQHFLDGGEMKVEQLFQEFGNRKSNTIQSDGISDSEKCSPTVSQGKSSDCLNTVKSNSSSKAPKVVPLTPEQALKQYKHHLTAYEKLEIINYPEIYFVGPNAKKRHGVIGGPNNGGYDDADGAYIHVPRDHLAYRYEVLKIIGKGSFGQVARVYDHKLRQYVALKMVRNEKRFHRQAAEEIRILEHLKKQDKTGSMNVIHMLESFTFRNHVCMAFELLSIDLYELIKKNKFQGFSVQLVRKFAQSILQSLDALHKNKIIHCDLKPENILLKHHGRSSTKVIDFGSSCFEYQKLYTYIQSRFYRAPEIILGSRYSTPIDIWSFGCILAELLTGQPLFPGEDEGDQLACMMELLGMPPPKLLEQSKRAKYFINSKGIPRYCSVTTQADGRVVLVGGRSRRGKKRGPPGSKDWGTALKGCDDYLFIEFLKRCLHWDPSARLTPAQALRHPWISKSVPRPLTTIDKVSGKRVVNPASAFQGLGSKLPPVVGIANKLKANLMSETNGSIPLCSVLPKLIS
The following applies: DYRK3, 10 uM; for remaining activity at 10 µM: read-out: % Enzyme Activity (relative to DMSO controls).

In experiment [2] the target is T2, 382 unique human kinases (Homo sapiens, UniProt Q02156).
T2 construct: purchased Reaction Biology (HotSpot contract assay)
T2 sequence (Q02156 1-737): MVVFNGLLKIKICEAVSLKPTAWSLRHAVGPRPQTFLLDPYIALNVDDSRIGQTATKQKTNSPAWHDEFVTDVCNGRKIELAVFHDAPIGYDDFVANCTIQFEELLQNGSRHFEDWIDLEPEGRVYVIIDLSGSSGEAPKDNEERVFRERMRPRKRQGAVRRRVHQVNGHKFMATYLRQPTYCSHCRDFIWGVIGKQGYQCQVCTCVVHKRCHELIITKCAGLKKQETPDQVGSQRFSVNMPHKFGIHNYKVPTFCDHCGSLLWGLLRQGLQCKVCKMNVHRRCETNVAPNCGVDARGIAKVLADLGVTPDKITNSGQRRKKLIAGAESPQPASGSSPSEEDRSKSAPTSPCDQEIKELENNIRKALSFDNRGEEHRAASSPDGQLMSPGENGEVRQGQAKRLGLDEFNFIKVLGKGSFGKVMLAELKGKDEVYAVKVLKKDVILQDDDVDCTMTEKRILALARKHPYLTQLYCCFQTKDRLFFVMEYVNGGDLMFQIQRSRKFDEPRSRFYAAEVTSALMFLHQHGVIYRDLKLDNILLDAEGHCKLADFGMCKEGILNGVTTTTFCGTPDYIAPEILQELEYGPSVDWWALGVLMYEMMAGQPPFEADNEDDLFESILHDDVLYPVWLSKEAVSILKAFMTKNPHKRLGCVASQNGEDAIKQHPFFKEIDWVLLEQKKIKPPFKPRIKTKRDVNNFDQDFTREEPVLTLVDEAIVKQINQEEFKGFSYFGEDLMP
To be noted: kinase PKCepsilon, compound 10 uM; for remaining activity at 10 µM: read-out: % Enzyme Activity (relative to DMSO controls).

Experiment [3] has as its target T3, 382 unique human kinases (Homo sapiens, UniProt O15111).
T3 construct: purchased Reaction Biology (HotSpot contract assay)
T3 sequence (O15111 1-745): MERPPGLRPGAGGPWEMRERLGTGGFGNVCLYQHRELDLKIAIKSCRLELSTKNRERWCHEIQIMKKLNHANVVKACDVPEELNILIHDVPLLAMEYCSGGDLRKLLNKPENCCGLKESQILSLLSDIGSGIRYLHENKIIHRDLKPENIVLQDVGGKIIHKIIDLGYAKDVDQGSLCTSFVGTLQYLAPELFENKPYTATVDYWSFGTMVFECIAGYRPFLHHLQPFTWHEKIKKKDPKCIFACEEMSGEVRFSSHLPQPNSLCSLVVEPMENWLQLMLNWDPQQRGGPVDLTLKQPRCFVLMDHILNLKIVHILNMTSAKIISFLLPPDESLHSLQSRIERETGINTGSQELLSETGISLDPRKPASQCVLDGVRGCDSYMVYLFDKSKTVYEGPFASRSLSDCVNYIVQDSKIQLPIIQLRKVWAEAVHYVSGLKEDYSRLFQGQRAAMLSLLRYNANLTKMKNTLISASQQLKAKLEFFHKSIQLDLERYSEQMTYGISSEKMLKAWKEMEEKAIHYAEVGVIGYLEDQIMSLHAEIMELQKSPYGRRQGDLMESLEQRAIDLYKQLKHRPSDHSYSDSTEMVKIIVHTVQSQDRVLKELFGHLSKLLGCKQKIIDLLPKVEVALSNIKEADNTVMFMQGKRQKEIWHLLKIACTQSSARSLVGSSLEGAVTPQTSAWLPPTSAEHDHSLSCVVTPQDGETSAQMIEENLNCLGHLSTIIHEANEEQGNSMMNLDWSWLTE
To be noted: IKKa/CHUK, 10 uM; for remaining activity at 10 µM: read-out: % Enzyme Activity (relative to DMSO controls).

In experiment [4] the target is T4, 382 unique human kinases (Homo sapiens, UniProt P10721, D816Y).
T4 construct: purchased Reaction Biology (HotSpot contract assay)
T4 sequence (P10721 26-976 D816Y): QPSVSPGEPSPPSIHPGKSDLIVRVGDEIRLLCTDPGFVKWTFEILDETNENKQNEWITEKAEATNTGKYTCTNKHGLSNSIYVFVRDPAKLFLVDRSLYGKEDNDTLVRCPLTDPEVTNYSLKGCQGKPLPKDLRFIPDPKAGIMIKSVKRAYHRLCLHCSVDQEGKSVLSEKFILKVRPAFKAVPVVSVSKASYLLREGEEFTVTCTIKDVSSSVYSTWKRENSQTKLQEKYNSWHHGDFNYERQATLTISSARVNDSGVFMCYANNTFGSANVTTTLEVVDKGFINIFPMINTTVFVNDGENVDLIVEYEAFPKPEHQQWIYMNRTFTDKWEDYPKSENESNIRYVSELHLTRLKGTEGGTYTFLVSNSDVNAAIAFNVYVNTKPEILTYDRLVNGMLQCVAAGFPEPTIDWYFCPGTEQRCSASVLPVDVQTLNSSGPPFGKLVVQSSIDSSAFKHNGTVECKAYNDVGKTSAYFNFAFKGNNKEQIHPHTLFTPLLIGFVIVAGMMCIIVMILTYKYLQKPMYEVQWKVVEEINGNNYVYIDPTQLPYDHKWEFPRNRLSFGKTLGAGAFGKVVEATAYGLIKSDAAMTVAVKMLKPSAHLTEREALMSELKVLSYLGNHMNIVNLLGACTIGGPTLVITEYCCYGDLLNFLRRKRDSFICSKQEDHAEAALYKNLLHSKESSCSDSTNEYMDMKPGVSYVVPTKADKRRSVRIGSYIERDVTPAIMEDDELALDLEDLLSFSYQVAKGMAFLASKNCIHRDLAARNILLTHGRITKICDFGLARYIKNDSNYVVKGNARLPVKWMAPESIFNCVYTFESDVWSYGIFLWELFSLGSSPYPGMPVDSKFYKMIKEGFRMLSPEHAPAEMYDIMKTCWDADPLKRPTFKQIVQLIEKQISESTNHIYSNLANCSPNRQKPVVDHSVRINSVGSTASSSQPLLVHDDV
The following applies: c-Kit (D816Y), [ATP] 10 µM, compound 10 uM; for remaining activity at 10 µM: read-out: % Enzyme Activity (relative to DMSO controls).

As for `CC(C)c1cc(-c2n[nH]c(=O)n2-c2ccc3c(ccn3C)c2)c(O)cc1O` [Ganetespib (STA9090)], the remaining activity at 10 µM in experiment [1] was determined as 67.1%; in experiment [2], 87%.
For `CC(C)c1cc(-c2n[nH]c(=O)n2-c2ccc3c(ccn3C)c2)c(O)cc1O` [Ganetespib], the results for the remaining activity at 10 µM in experiment [3] and in experiment [4] were 103% and 32.1%, respectively.
For `CCNC(=O)c1noc(-c2cc(C(C)C)c(O)cc2O)c1-c1ccc(CN2CCOCC2)cc1` [Luminespib (AUY-922)], the figures for the “% Enzyme Activity (relative to DMSO controls)” value in experiment [1] and in experiment [2] were 94.13% and 103.78%, respectively. For the same compound, the remaining activity at 10 µM in experiment [1] was determined as 94.8%; in experiment [2], 107%.
Regarding `CCNC(=O)c1noc(-c2cc(C(C)C)c(O)cc2O)c1-c1ccc(CN2CCOCC2)cc1` [Luminespib], in experiment [3], the “% Enzyme Activity (relative to DMSO controls)” value is 93.54% and the remaining activity at 10 µM worked out at 94.7%. Further, in experiment [4], the “% Enzyme Activity (relative to DMSO controls)” value came to 53.55% and the remaining activity at 10 µM amounted to 57.9%.

The record behind these values is PMC8550792, “Evolution of kinase polypharmacology across HSP90 drug discovery” (Cell Chemical Biology, 2021).
